Values after ≈ are worked out from the molar mass of the structure shown. Read-outs that look alike come from different tables or passages of the source.
Key:
[1] = test system: Novobiocin resistant mutant strain of S. aureus ATCC 13709; assay: Prophylactic efficacy in rat model of S. aureus bone infection; format: in vivo; conditions: for Measured bacterial titer, test compound: 20 mg/kg parent drug equivalent, tibia 24 h postinfection; for Prophylactic activity in rat bone infection model (in words): 20 mg/kg, 1 day or 5 days prior to infection
Procedure: To determine the in vivo activity of bisphosphonated prodrugs of Rifamycin derived antibacterials in comparison to their non-bisphosphonated parents, compounds 18, 19, 48a, 59, 66, 89, 95, 102, 110, 142b and 164 and their parent drug rifabutin were used as prophylactic therapeutics in an animal model of infection. Specifically, a spontaneous Novobiocin resistant mutant strain of S. aureus ATCC 13709 (a clinical osteomyelitis isolate), was grown overnight at 37° C. in brain heart infusion broth (BHIB). After 16 h of growth, cells were subcultured into fresh BHIB and incubated for 4 to 5 h at 37° C. The cells were washed twice with phosphate-buffered saline (PBS) and resuspended in BHIB supplemented with 10% (vol./vol.) fetal bovine serum at a density of approximately 10^10 colony forming units (CFU)/ml (based upon turbidimetry). The suspension was aliquoted and a portion was used to check the CFU count. The culture was stored frozen (−80° C.) and was used without subculture. For use as an inoculum the culture was thawed, diluted in PBS and kept in an ice bath until it was used.
Animals were infected as described by O'Reilly et al. (Antimicrobial Agents and Chemotherapy (1992), 36(12): 2693-97) to generate the bone infection. Female CD rats (age, 57 to 70 days; n=5/group; Charles River, St-Constant, Canada) were anaesthetized by isofluorane before and during the surgery. Following complete induction of anesthesia, the rat was placed ventral side up and hair was shaved from the surgical site. The skin over the leg was cleaned and disinfected (proviodine-ethanol 70%). A longitudinal incision below the knee joint was made in the sagital plane. The incision was made over the bone below the “knee joint” (tibia head or condyle) but not completely extending to the ankle. A high speed drill fitted with a 2 mm bulb bit was used to drill a hole into the medullar cavity of the tibia. Rats were injected intra-tibially with 0.05 ml 5% sodium morrhuate (sclerosing agent) and then with 0.05 ml of S. aureus suspension (ca. 2×10^7 CFU/rat). The hole was sealed by applying a small amount of dry dental cement which immediately absorbs fluids and adheres to the site. The wound was closed using 3 metal skin clips. Moxifloxacin (as a positive control) was injected once at 10 mg/kg intravenously 1 h postinfection in saline, while the Rifabutin derived prodrugs (prepared in 0.9% saline) were injected at the dose indicated in Table 3 as a single intravenous bolus at different time points prior to the infection.
Infected rats were sacrificed by CO2 asphyxiation 24 h postinfection to monitor the bacterial CFU count. Infected tibiae were removed, dissected free of soft tissue, and weighed. The bones were ground, 50 mg of charcoal were added and the powder was resuspended in 5 ml 0.9% NaCl, serially diluted and processed for quantitative cultures. Treatment efficacy was measured in terms of Log viable bacteria (Log CFU per gram of bone). […] The limit of detection is 2 Log CFU. Statistical comparisons of viable bacterial counts for the different treated and untreated groups were performed with the Dunnett's multiple-comparison test. Differences were considered significant when the P value was <0.05 when comparing treated infected animals to the untreated infected ones. The doses used, the amount of time separating the treatment from the time of infection and the treatment outcomes are shown in Table 3.

[2] = test system: S. aureus ATCC 13709; assay: microbe, parasite or virus in culture; format: cell-based; conditions: for Minimum inhibitory concentration, S. aureus ATCC 13709: CAMHB, 37° C., 18 h; for MIC: Staphylococcus aureus, ATCC13709, 18 h, read-out: Minimum inhibitory concentration, S. aureus ATCC 13709
Procedure: (§1) Susceptibility of S. aureus strains to the known antibiotics and synthesized compounds was determined by following the guidelines set by NCCLS (M26-A). Compounds were diluted two-fold serially in DMSO and transferred to cation-adjusted Mueller Hinton broth (CAMHB; Becton Dickinson). 50 μL of compounds diluted in CAMHB was mixed with 100 μL of bacteria diluted in CAMHB in 96-well microtiter plates. The final concentration of micro-organisms in the assay was 5×10^5c.f.u. per mL and the final concentration of DMSO in the assay was 1.25%. Assays were set up in duplicate and incubated at 37° C. for 18 h. The lowest concentration of compound that inhibited visible growth was reported as the minimum inhibitory concentration (MIC).

[3] = test system: S. aureus ATCC 13709; assay: microbe, parasite or virus in culture; format: cell-based; conditions: for Serum dependence of antibacterial activity (in words): MIC with versus without serum; for MIC: Staphylococcus aureus, ATCC13709, 18 h
Procedure: as §1
Susceptibility testing experiments were also carried out in the presence of serum. These experiments were carried out similar to the susceptibility testing with the following modifications. 75 μL of compounds diluted in CAMHB was mixed with 75 μL of bacteria diluted in 100% serum from any given source (commercial pooled mouse serum (MS) and human serum (HS), Equitech-Bio Inc.) or diluted in 8% purified human serum albumin (HSA) (Calbiochem). The final concentration of animal serum in the assay was 50% and the final concentration of purified human serum albumin in the assay was 4%; the concentrations of all other components were identical to those described for susceptibility testing.

[4] = test system: S. aureus ATCC 29213; assay: Antibacterial susceptibility (MIC), NCCLS broth microdilution; format: cell-based; conditions: for Minimum inhibitory concentration, S. aureus ATCC 29213: CAMHB, 37° C., 18 h; for MIC: Staphylococcus aureus, ATCC29213, 18 h, read-out: Minimum inhibitory concentration, S. aureus ATCC 29213
Procedure: as §1

[5] = test system: S. aureus ATCC 13709^A, Novobiocin and Rifampicin resistant variant; assay: as above; format: cell-based; conditions: for MIC: Staphylococcus aureus, ATCC13709, read-out: Minimum inhibitory concentration, S. aureus ATCC 13709^A
Procedure: as §1

[6] = single intravenous bolus 1 day prior to infection
[7] = read-out: Minimum inhibitory concentration, ATCC 13709 + 50% Human Serum
[8] = read-out: Minimum inhibitory concentration, ATCC 13709 + 50% Mouse Serum
[9] = read-out: Minimum inhibitory concentration, ATCC 13709 + 50% Rat Serum

## CCCC(=O)OCCN(CCCCC(P(=O)(O)O)P(=O)(O)O)CC(=O)O[C@@H]1[C@@H](C)[C@@H](O)[C@@H](C)[C@H](OC(C)=O)[C@H](C)[C@@H](OC)/C=C/O[C@@]2(C)Oc3c(C)c(O)c4c(c3C2=O)C2=NC3(CCN(CC(C)C)CC3)NC2=C(NC(=O)/C(C)=C\C=C\[C@@H]1C)C4=O [Compound 48a]
[1]; [6]
  Measured bacterial titer, test compound: 2.53 ± 0.94 Log CFU/g of bone
[1]; single intravenous bolus 5 days prior to infection
  Measured bacterial titer, test compound: 2.65 ± 0.85 Log CFU/g of bone
[1]
  Prophylactic activity in rat bone infection model (in words): more potent than rifabutin at 5 days
[2]
  Minimum inhibitory concentration, S. aureus ATCC 13709: 2 µg/mL (≈ 1.6 µM)
[3]
  Minimum inhibitory concentration, ATCC 13709 + 50% Human Serum: 8 µg/mL
  Minimum inhibitory concentration, ATCC 13709 + 50% Mouse Serum: 2 µg/mL
  Minimum inhibitory concentration, ATCC 13709 + 50% Rat Serum: 0.25 µg/mL
  Serum dependence of antibacterial activity (in words): significant increase in antibacterial activity in serum
[4]
  Minimum inhibitory concentration, S. aureus ATCC 29213: 2 µg/mL (≈ 1.6 µM)
[5]
  Minimum inhibitory concentration, S. aureus ATCC 13709^A: >128 µg/mL

## CCC(=O)OCOC(=O)NCC(=O)OCCN(CCCCC(P(=O)(O)O)P(=O)(O)O)CC(=O)O[C@@H]1[C@@H](C)[C@@H](O)[C@@H](C)[C@H](OC(C)=O)[C@H](C)[C@@H](OC)/C=C/O[C@@]2(C)Oc3c(C)c(O)c4c(c3C2=O)C2=NC3(CCN(CC(C)C)CC3)NC2=C(NC(=O)/C(C)=C\C=C\[C@@H]1C)C4=O [Compound 59]
[1]; [6]
  Measured bacterial titer, test compound: 1.95 ± 0.06 Log CFU/g of bone
[2]; S. aureus MIC
  Antibacterial activity (in words, from Table 1): very low MICs whether in the absence or in the presence of serum
[2]
  MIC: 0.125 µg/mL (≈ 0.0916 µM)
[3]; [7]
  MIC: 0.0625 µg/mL
[3]; [8]
  MIC: 0.0312 µg/mL
[3]; [9]
  MIC: 0.008 µg/mL
[4]
  MIC: 0.125 µg/mL (≈ 0.0916 µM)
[5]
  MIC: > 128 µg/mL

## CO[C@H]1/C=C/O[C@@]2(C)Oc3c(C)c(O)c4c(c3C2=O)C2=NC3(CCN(CC(C)C)CC3)NC2=C(NC(=O)/C(C)=C\C=C\[C@H](C)[C@H](OC(=O)CN(CCCCC(P(=O)(O)O)P(=O)(O)O)CCNC(=O)OCc2ccc(OC(C)=O)cc2)[C@@H](C)[C@@H](O)[C@@H](C)[C@H](OC(C)=O)[C@@H]1C)C4=O [Compound 66]
[1]; [6]
  Measured bacterial titer, test compound: 1.97 ± 0.05 Log CFU/g of bone
[2]
  MIC: 4 µg/mL (≈ 2.92 µM)
[3]
  Serum dependence of antibacterial activity (in words): significant increase in antibacterial activity in serum
[3]; [7]
  MIC: 4 µg/mL
[3]; [8]
  MIC: 0.125 µg/mL
[3]; [9]
  MIC: 0.008 µg/mL
[4]
  MIC: 4 µg/mL (≈ 2.92 µM)
[5]
  MIC: > 128 µg/mL

## CCC(=O)OCOC(=O)N[C@@H](CCC(=O)Nc1ccc(CC(P(=O)(O)O)P(=O)(O)O)cc1)C(=O)N(C)CC(=O)O[C@@H]1[C@@H](C)[C@@H](O)[C@@H](C)[C@H](OC(C)=O)[C@H](C)[C@@H](OC)/C=C/O[C@@]2(C)Oc3c(C)c(O)c4c(c3C2=O)C2=NC3(CCN(CC(C)C)CC3)NC2=C(NC(=O)/C(C)=C\C=C\[C@@H]1C)C4=O.N.N [Compound 110]
[1]; [6]
  Measured bacterial titer, test compound: 1.94 ± 0.04 Log CFU/g of bone
[2]
  Minimum inhibitory concentration, S. aureus ATCC 13709: 8 µg/mL
[3]
  Minimum inhibitory concentration, ATCC 13709 + 50% Human Serum: 8 µg/mL
  Minimum inhibitory concentration, ATCC 13709 + 50% Mouse Serum: 0.125 µg/mL
  Minimum inhibitory concentration, ATCC 13709 + 50% Rat Serum: 0.0156 µg/mL
  Serum dependence of antibacterial activity (in words): significant increase in antibacterial activity in serum
[4]
  Minimum inhibitory concentration, S. aureus ATCC 29213: 8 µg/mL
[5]
  Minimum inhibitory concentration, S. aureus ATCC 13709^A: >128 µg/mL

## CCC(=O)OCOC(=O)N(CCCC(P(=O)(O)O)P(=O)(O)O)CCOC(=O)N1C2=C3NC(=O)/C(C)=C\C=C\[C@H](C)[C@H](O)[C@@H](C)[C@@H](O)[C@@H](C)[C@H](OC(C)=O)[C@H](C)[C@@H](OC)/C=C/O[C@@]4(C)Oc5c(C)c(O)c(c(c5C4=O)C2=NC12CCN(CC(C)C)CC2)C3=O [Compound 164]
[1]; [6]
  Measured bacterial titer, test compound: 5.48 ± 0.64 Log CFU/g of bone
[1]
  Prophylactic activity in rat bone infection model (in words): ineffective at 1 day
[2]
  Minimum inhibitory concentration, S. aureus ATCC 13709: 4 µg/mL (≈ 3.12 µM)
[3]
  Minimum inhibitory concentration, ATCC 13709 + 50% Human Serum: 8 µg/mL
  Minimum inhibitory concentration, ATCC 13709 + 50% Mouse Serum: 2 µg/mL
  Minimum inhibitory concentration, ATCC 13709 + 50% Rat Serum: 0.25 µg/mL
  Serum dependence of antibacterial activity (in words): significant increase in antibacterial activity in serum
[4]
  Minimum inhibitory concentration, S. aureus ATCC 29213: 4 µg/mL (≈ 3.12 µM)
[5]
  Minimum inhibitory concentration, S. aureus ATCC 13709^A: >128 µg/mL

— patent US8524691B2, “Phosphonated rifamycins and uses thereof for the prevention and treatment of bone and joint infections” (The Medicines Company, priority 2008, dated 2013)
